Measured values: paper PMC2225439, “Amyloid as a Depot for the Formulation of Long-Acting Drugs” (PLoS Biology, 2008)

Key:
[1] = Thio T binding (amyloid fibril formation); format: physicochemical; parameters: key to Thio T Binding: b, binding; n, not binding; details: 1 mg/ml in 5% D-mannitol, 0.01% sodium azide, room temperature without stirring, monitored daily over 21 d; fluorescence ex 450 nm / em 482 nm; three independent experiments
Description: The kinetics of fibril formation in vitro is generally a slow process over several days or weeks, and can be monitored by the increase of fluorescence intensity of the cross-β-sheet–sensitive dye, Thio T [15]. Thio T fluorescence is thereby insignificant during the initial incubation period of amyloid aggregation due to the nonexistence of Thio T–sensitive β-sheet aggregates. After the initial phase, a time-dependent increase of fluorescence intensity is observed until a maximum intensity is reached, at which time maximal fibril formation has occurred. […] For the Thio T binding studies, all GnRH analogs were incubated at room temperature at a concentration of 1 mg/ml in 5% D-mannitol, conditions identical to the formulation used in the animal experiments. In addition, 0.01% sodium azide was added. The Thio T fluorescence was monitored daily for all analogs over a period of 21 d (Figure 1).
(§1) GnRH analogs were dissolved in a glass tube in 1 ml of 5% D-mannitol and 0.01% sodium azide at a concentration of 1 mg/ml. The GnRH analogs were then incubated at room temperature without stirring. The fibril formation was monitored by EM, CR, and time-resolved by Thio T binding studies. Three independent experiments were performed for each sample.
A 10-μl aliquot of peptide sample was diluted into 500 μl of water with 5% D-mannitol containing 0.01% (w/v) sodium azide. The solution was mixed with 10 μl of 1 mM Thio T prepared in the same solution. Fluorescence was measured immediately after addition of Thio T. The experiment was measured on a spectrofluorimeter (Photon Technology International) with excitation at 450 nm and emission at 482 nm. The fluorescence intensity at 482 nm was plotted against incubation time (day). A rectangular 10-mm quartz microcuvette was used. Three independent experiments were performed for each sample.

Congo red (CR) binding = format: physicochemical; parameters: key to Congo Red: b, binding; n, not binding; details: analogs incubated for 30 d; for Congo Red: 1 mg/ml in 5% D-mannitol, 0.01% sodium azide, room temperature, UV 300–700 nm and by eye, three independent experiments
Description: To confirm amyloid formation by GnRH analogs, CR binding was measured. CR, like Thio T, is a dye routinely used to detect β-sheet–rich assemblies. CR binding can be measured by the “red shift” change of its absorption maximum from 490 to 540 nm, by an increase of the dye's molar absorptivity, and in favorable cases by eye. All three types of measurements were performed with GnRH analogs incubated for 30 d. […] However, five short-acting GnRH analogs, i.e., S3, S4, S6, S10, and S11, bind CR, showing that some short-acting GnRH-analogs are able to form amyloids after prolonged incubation (see also below). In contrast to short-acting analogs, all long-acting analogs bind CR.
as §1
A 5-μl aliquot of peptide sample was mixed with 80 μl of PBS buffer containing 10% ethanol. Then 15 μl of a 100 μM CR solution (filtered through 0.2-μm filter) in PBS containing 10% ethanol was added. After mixing, UV was measured from 300–700 nm. For the measurement of the CR-only spectrum, 15 μl of CR solution with 85 μl of PBS containing 10% ethanol was prepared. As a control, a 5-μl aliquot of GnRH analog mixed with 95 μl of PBS containing 10% ethanol was measured. Three independent experiments were performed for each sample. In addition to the UV measurements, pictures of the cuvette containing the peptide sample and CR were taken to visually show the CR binding to the amyloids.

[2] = test system: plasma luteinizing hormone (LH) levels; details: cited from earlier work; for Action: duration of action class as listed in Table 1, castrated male rat assay, ref Tables S1 and S2
Excerpt: Table 1 Biochemical and Biophysical Properties of Aggregates By GnRH-Analogs | column: Action || Supplement pbio.0060017.st001.doc, table 1: Table S1: Short acting GnRH analogs with their duration of action | column: Duration of action^b || Supplement pbio.0060017.st002.doc, table 1: Table S2: Long acting GnRH analogs with their duration of action | column: Duration of action^b || (+ 2 further places)

[3] = Peptide release from amyloid (dialysis experiment); details: for KD: dissociation constant of the aggregates = final monomer concentration, 200 μl of 30-d-old analog dialyzed against 4 ml 5% D-mannitol, fluorescence ex 280 nm
Description: Although amyloid fibrils are very stable, they must follow thermodynamic equilibrium conditions between fibril and monomer. […] A total of 200 μl of 30-d-old GnRH analog (in) was dialyzed 4 ml of 5% D-mannitol (out). A 3.5-kDa cutoff, which is twice the size of the peptides studied, was chosen to ensure that the released particles are most likely monomeric. The peptide release and the remaining aggregates were monitored by fluorescence over 35 d at room temperature.
A 200-μl aliquot of aged GnRH in solution conditions given above was transferred into a 0.6-ml Eppendorf tube with a hole in the cap. To study the effect of heparin on peptide release, a mixture of hormone analog and heparin (1:1 v/v) was incubated overnight in parallel with a half-diluted peptide fibril sample in 5% D-mannitol and 0.01% sodium azide. The hole in the cap of the Eppendorf tube was sealed with a 3.5-kDa molecular weight cutoff (MWCO) membrane. Next, the Eppendorf tube was inserted upside down into a 15-ml Falcon tube containing 4 ml of 5% D-mannitol in water and 0.01% sodium azide. Care was taken to make sure that the membrane was exposed to solutions both in and outside and that any bubbles at the membrane interface were removed. The tubes were then incubated at room temperature. To measure the remaining peptide concentration inside the 0.6-ml Eppendorf tube, a 5-μl aliquot was diluted into 500 μl water with 5% D-mannitol, 0.01% sodium azide, and the fluorescence was measured with excitation at 280 nm and emission in the range of 290–500 nm. The excitation slit width was 2 nm, and emission slit width was 11 nm. To determine the peptide concentration outside the membrane in the 15-ml tube, an aliquot of 250 μl of solution was taken from the releasing medium, diluted into 500 μl final volume by 5% D-mannitol, 0.01% sodium azide, and fluorescence was measured. Following spectra recording, the dialysis system was reassembled as described above. […] The normalized intensity maxima from inside and outside the membrane were plotted as a function of time and fit by an exponential function to extract the half-life of the fibrils and the K off, respectively. […] The extracted half-life, t 1/2, is the time taken, during which the fluorescence signal inside the 0.6-ml Eppendorf tube drops by 50%.

[4] = Electron microscopy of negative-stained samples; format: physicochemical; parameters: key to EM^8 / EM^30: fib, fibrils; nfib, no fibrils; details: for EM, formation of amyloid-like fibrils at day 30 (in words): 30 d of incubation; for EM^8: electron microscopy at day 8 of incubation; for EM^8 / EM^30: 1 mg/ml in 5% D-mannitol, room temperature, at least two independent experiments; for EM^30: electron microscopy at day 30 of incubation; for EM, formation of amyloid-like fibrils at day 8 (in words): 8 d of incubation
Description: To formally determine the formation of amyloid fibrils by GnRH analogs and to characterize other possible assemblies present in the sample, EM was done on all of the GnRH analogs. Since the EM analysis is for a qualitative interpretation only, amyloid fibrils and other small aggregates might be observed under the electron microscope even if only a minority of the sample forms fibrils. Samples were studied after 8 and 30 d of incubation. […] The fibrils show a wide variety of morphologies, comprising helical ultrastructures with varying degrees of lateral association. Furthermore, the fibrils are composed of one or more filaments, resulting in overall diameters ranging from approximately 6 to 12 nm. No oligomers are observed for the long-acting compounds at day 8 or at day 30 (Figures 2 and S2).
as §1
A 5-μl aliquot of peptide sample was diluted into 50 μl of water to a peptide concentration of approximately 50 μM, spotted on a glow-discharged, carbon-coated Formvar grid (Electron Microscopy Sciences), incubated for 5 min, washed with distilled water, and then stained with 1% (w/v) aqueous uranyl formate solution. Uranyl formate solutions were filtered through 0.2-μm sterile syringe filters (Corning) before use. EM analysis was performed using a JEOL JEM-100CXII electron microscope at 80 kV with nominal magnifications between 36,000 and 72,000. Images were recorded digitally by using the SIS Megaview III imaging system. At least two independent experiments were carried out for each sample.

[5] = dialysis, 3.5-kDa cutoff, room temperature, 35 d
[6] = half-life of fibrils: time in which fluorescence inside drops by 50%, dialysis of 30-d-old analog, 3.5-kDa MWCO, 5% D-mannitol, room temperature, 35 d, exponential fit, 2 d = intrinsic diffusion of monomer
[7] = 3.5-kDa MWCO, room temperature, 35 d

Compound	Thio T Binding [1]	Congo Red (Congo red (CR) binding)	time to reach equilibrium of fluorescence inside and outside of the membrane ([3]; dialysis, 3.5-kDa cutoff, room temperature) [days]	t1/2 [3, 6]	EM^8 [4]	EM^30 [4]	KD [3, 7] [nM]	duration of action ([2]; ref [29],[30])	K off [3, 5]	t1/2 [3, 5]	EM, formation of amyloid-like fibrils at day 30 (in words) [4]	Action [2]	EM, formation of amyloid-like fibrils at day 8 (in words) [4]	CR binding (in words) (Congo red (CR) binding)	stability of fibrils from release profile (in words) ([3]; dialysis of 30-d-old samples, 35 d)	Koff ([3]; monomer release from aggregates, dialysis of 30-d-old analog, 3.5-kDa MWCO, 5% D-mannitol, room temperature, 35 d, exponential fit)
Ac-Agl(2-Napht)-DCpa-DPal-Ser-Aph(Ac)-DAph(Ac)-Leu-ILys-Pro-DAla-NH2 [L21]	b	b	–	840 h	fib	fib	2000	–	–	–	–	intermediate	–	–	–	–
Ac-DNal-DCpa-DPal-Ser-Aph(Ac)-DAph(Ac)-Leu-Agl(Me,IβAla)-Pro-DAla-NH2 [L22]	b	b	–	672 h	fib	fib	7000	–	–	–	–	medium	–	–	–	–
Ac-DNal-DCpa-DPal-Ser-Aph(Atz)-DAph(Atz)-Leu-ILys-Pro-DAla-NH2 [L19, reference compound]	b	b	–	–	fib	fib	–	–	–	–	–	–	–	–	–	–
des-Ac-[Aph(CO-NH-OCH3)^5]-CH3-(CH2)2-CO-degarelix [L16]	b	b	–	–	fib	fib	–	–	–	–	–	–	Short worm-like protofibrils	–	–	–
des-Ac-[DAph(CONHOCH3)6]Peg-degarelix [S10]	b	b	–	≫35 day	fib	fib	1000	–	< 2 × 10^−7 S^−1	over 35 d	form amyloid-like fibrils	–	form amyloid-like fibrils	bind CR	form very stable amyloids with very little peptide release	≪2 × 10^−7 s^−1

Continued, in another order:

Thio T Binding [1]	Congo Red (Congo red (CR) binding)	time to reach equilibrium of fluorescence inside and outside of the membrane ([3]; dialysis, 3.5-kDa cutoff, room temperature) [days]	t1/2 [3, 6]	EM^8 [4]	EM^30 [4]	KD [3, 7] [nM]	Compound	duration of action ([2]; ref [29],[30])	K off [3, 5]	t1/2 [3, 5]	EM, formation of amyloid-like fibrils at day 30 (in words) [4]	Action [2]	EM, formation of amyloid-like fibrils at day 8 (in words) [4]	CR binding (in words) (Congo red (CR) binding)	stability of fibrils from release profile (in words) ([3]; dialysis of 30-d-old samples, 35 d)	Koff ([3]; monomer release from aggregates, dialysis of 30-d-old analog, 3.5-kDa MWCO, 5% D-mannitol, room temperature, 35 d, exponential fit)
n	n	≤ 3	48 h	nfib	nfib	–	CC(C)C[C@H](NC(=O)CNC(=O)[C@H](Cc1ccc(O)cc1)NC(=O)[C@H](CO)NC(=O)[C@H](Cc1c[nH]c2ccccc12)NC(=O)[C@H](Cc1c[nH]cn1)NC(=O)[C@@H]1CCC(=O)N1)C(=O)N[C@@H](CCCNC(=N)N)C(=O)N1CCC[C@H]1C(=O)NCC(N)=O [S12, reference compound]	a few hours	approximately 4 × 10^−6 S^−1	approximately 2 d	do not form any detectable amyloid-like fibrils	–	–	–	–	–
n	n	–	48 h	nfib	nfib	–	Ac-Agl(Me,2-Napht)-DCpa-DPal-Ser-Aph(Ac)-DAph(Ac)-Leu-ILys-Pro-DAla-NH2 [S8]	–	–	–	do not form any detectable amyloid-like fibrils	very short	–	–	–	–
n	n	–	48 h	nfib	nfib	–	Ac-D3-Pro-DFpa-DTrp-Ser-Tyr-DTrp-Leu-Arg-Pro-Gly-NH2 [S5, reference compound]	–	–	–	do not form any detectable amyloid-like fibrils	–	–	–	–	–
n	n	–	48 h	nfib	nfib	–	Ac-DNal-DCpa-DPal-Ser-Arg-DGlu(AA)-Leu-Arg-Pro-DAla-NH2 [S7, reference compound]	–	–	–	do not form any detectable amyloid-like fibrils	–	–	–	–	–
n	n	–	48 h	nfib	nfib	–	Ac-DNal-DCpa-DPal-Ser-D,LAgl(Me,acetylamino)benzoyl-DAph(Ac)-Leu-ILys-Pro-DAla-NH2 [S9]	–	–	–	do not form any detectable amyloid-like fibrils	very short	–	–	–	–
